Key:
MPTP-ablated monkeys = assay: Parkinsonian clinical rating scale (CRS) in MPTP-ablated monkeys; assay type: in vivo, rhesus; conditions: diflucan continuously 3-12 mg/kg x day in animal previously treated with Lenti-GDNF
Procedure: Twenty young adult rhesus are initially trained 3 days per week until asymptotic performance is achieved on a hand-reach task in which the time to pick up food treats out of recessed wells is measured (M. E. Emborg, et al., J. Comp. Neurol. 401, 253 (1998); J. H. Kordower, Cell Transplant. 4, 155 (1995)). Each experimental day, monkeys receive 10 trials per hand. Once per week, monkeys are also evaluated on a modified parkinsonian clinical rating scale (CRS) to obtain a measurement of baseline performance. All monkeys then receive an injection of 3 mg MPTP-HCl into the right carotid artery, initiating a Parkinsonian state. One week later, monkeys are evaluated on the CRS. Only monkeys displaying severe hemi-Parkinsonism with the classic crooked arm posture and dragging leg on the left side continue in the study.
On the basis of CRS scores, monkeys are matched into three groups of five monkeys, which receive on that day: lentiviral vector expressing-b-galactosidase (Lenti-βgal) (group 1); Lenti-GDNF plus continuous treatment with diflucan (group 2); or Lenti-GDNF treatment alone (group 3). […]
One week following lentiviral vector treatment, monkeys begin retesting on the hand-reach task three times per week for 3 weeks per month. […] During the weeks of hand-reach testing, monkeys are also scored once per week on the CRS. […]

GDNF = GDNF expression in brain of MPTP-ablated monkeys (immunohistochemistry, ELISA); assay type: in vivo, rhesus
Procedure: After euthanasia, all monkeys are perfused with saline. The brain is removed, immersed in ice-cold saline for 10 min, and sliced on a monkey brain slicer. Slabs through the head of the caudate and putamen are punched bilaterally with a 1 mm brain punch. These punches are processed for HPLC for determination of catecholamine content. Brain punches are also homogenized in 150:1 buffer I [0.1M tris-buffered saline, pH 8.1, containing 1 mM EDTA, 1% aprotinin, 10 mg/ml leupeptin, 14 mg/ml pepstatin, 4 mM phenylmethylsulfonyl fluoride (PMSF)] for 30 sec in the ice slurry. An equal amount of buffer II (0.1 M tris-buffered saline, pH 8.1, containing 1 mM EDTA, 1% aprotinin, 10 g/ml leupeptin, 14 μg/ml pepstatin, 4 mM PMSF, and 0.5% NP-40) is then added. The tubes are shaken for 2 hours. The supernatant is collected for ELISA and protein measurements. The ELISA reaction was completed in 96-well plate (Dynatech, Chantilly, Va.) according to the ELISA manufacturer's instructions (GDNF Emax ImmunoAssay Systems Kit G3520, Promega, Madison, Wis.). The optical densities are recorded in ELISA plate reader (at 450 nm wave length; Dynatech). […] The concentrations of GDNF are calculated against six-point standard curve and then adjusted to picograms of GDNF per milligram of total protein. The total protein in each tissue lysate is measured using Bio-Rad protein assay kit (Bio-Rad, Richmond, Calif.). […]

## OC(Cn1cncn1)(Cn1cncn1)c1ccc(F)cc1F [Diflucan, Fluconazole]
MPTP-ablated monkeys
  therapeutic effect in Parkinson's model monkeys: no therapeutic effect
GDNF; diflucan continuously 3-12 mg/kg x day in animal previously treated with Lenti-GDNF
  GDNF expression: switched off
GDNF; diflucan treated animals compared to animals where diflucan is omitted
  levels of GDNF in the brains: no significant levels of GDNF

Reference: patent US20050260164A1, “Gene regulation with aptamer and modulator complexes for gene therapy” (priority 2002, published 2005)
